Molecular target: CDK4 (Homo sapiens, UniProt P11802+Q16531)
Experiment: CDK4 percentage degradation in Calu-1 cells (Table 6)
Format: cell-based
Parameters: Cells that express cyclin D1-3 and CDK4/6 proteins were treated with heterobifunctional compounds; endogenous in cells; host or cells: Calu-1
Settings: 16 hours; for inhibition at 0.04 µM: 40 nM; for inhibition at 0.2 µM: 200 nM
Method: Calu-(cells were treated with heterobifunctional compounds at 40 nM or 200 nM for 16 hours A: protein percentage degradation […]; B: protein percentage degradation <80%, and ≥50%; C: protein percentage degradation <50%, and ≥30%; D; protein percentage degradation […]; -, data not available.
Calu-1, T47D, MCF7, HCC1428 and other cells were cultured at 37° C. with 5% CO2 in RPMI 1640 or DMEM medium supplemented with 10% fetal bovine serum. Cells were authenticated using the short tandem repeat (STR) assays. Mycoplasma test results were negative. For palbo-resistant cell model, T47D cells were cultured long-term to resistance in the presence of 1 μM Palbociclib. Cells were deemed resistant when growing in the presence of Palbo at the same rate as parental cells.
Cultured cells were washed with cold PBS once and lysed in cold RIPA buffer supplemented with protease inhibitors and phosphatase inhibitors (Beyotime Biotechnology). The solutions were then incubated at 4 ? for 30 min with gentle agitation to fully lysed cells. Cell lysates were centrifuged at 13,000 rpm for 10 min at 4 ? and pellets were discarded. Total protein concentrations in the lysates were determined following BCA assays (Beyotime Biotechnology). Cell lysates were mixed with Laemmli loading buffer and heated at 99° C. for 5 min. Proteins were resolved on SDS-PAGE and visualized using Western ECL Substrate kits on a ChemiDoc MP Imaging system (Bio-Rad). Protein bands were quantitated using the Image Lab software provided by Bio-Rad.

Sequence of CDK4 (P11802 2-303 limits assumed): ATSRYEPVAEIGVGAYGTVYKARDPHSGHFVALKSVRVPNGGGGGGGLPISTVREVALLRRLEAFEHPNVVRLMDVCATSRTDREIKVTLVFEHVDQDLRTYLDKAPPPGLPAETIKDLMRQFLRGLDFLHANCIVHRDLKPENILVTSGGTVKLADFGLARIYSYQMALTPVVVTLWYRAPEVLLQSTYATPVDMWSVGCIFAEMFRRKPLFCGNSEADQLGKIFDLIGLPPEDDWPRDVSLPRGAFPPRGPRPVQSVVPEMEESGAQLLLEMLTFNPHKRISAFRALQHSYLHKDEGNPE
Sequence of CDK4 (P24385 whole entry partner): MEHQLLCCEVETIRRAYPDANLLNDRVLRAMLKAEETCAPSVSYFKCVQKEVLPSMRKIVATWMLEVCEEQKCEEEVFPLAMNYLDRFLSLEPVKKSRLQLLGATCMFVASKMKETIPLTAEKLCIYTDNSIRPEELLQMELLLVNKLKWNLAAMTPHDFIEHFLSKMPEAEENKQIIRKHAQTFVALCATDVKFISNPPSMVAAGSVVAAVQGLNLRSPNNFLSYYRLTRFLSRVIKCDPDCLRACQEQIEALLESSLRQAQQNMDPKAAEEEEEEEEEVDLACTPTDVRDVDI
Sequence of CDK4 (Q16531 2-1140 limits assumed): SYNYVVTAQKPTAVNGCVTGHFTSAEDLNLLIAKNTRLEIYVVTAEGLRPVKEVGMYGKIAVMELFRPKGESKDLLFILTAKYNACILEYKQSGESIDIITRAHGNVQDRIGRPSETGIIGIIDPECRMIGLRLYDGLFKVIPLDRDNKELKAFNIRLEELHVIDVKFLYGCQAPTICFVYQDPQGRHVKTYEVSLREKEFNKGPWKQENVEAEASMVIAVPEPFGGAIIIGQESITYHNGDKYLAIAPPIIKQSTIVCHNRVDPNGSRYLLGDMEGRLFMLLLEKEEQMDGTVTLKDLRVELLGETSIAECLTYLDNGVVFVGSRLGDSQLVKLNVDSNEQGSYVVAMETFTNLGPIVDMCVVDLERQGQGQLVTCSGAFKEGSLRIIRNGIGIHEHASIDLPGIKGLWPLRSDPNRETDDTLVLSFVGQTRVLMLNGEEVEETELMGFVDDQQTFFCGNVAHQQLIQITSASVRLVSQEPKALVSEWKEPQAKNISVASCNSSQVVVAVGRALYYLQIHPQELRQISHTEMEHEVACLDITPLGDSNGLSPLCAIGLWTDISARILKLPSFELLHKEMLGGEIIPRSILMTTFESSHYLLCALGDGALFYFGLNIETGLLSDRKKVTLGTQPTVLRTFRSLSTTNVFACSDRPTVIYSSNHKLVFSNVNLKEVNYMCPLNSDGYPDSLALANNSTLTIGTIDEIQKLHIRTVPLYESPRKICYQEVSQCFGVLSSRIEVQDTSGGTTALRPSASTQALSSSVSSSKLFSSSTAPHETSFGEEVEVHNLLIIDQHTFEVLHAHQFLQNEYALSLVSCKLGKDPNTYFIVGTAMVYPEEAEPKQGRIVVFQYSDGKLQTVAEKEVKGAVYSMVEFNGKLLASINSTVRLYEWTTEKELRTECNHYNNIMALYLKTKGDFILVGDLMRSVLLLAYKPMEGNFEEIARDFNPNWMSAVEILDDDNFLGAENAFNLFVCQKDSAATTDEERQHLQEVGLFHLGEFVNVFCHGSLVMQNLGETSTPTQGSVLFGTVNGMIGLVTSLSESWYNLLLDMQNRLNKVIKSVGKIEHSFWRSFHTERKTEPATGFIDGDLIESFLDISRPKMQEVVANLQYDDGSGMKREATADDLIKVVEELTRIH

| inhibition at 0.04 µM [%] | inhibition at 0.2 µM [%] | SMILES |
| --- | --- | --- |
| < 30 | 30 to 50 | CC(=O)c1c(C)c2cnc(Nc3ccc(N4CCN(CC(=O)NCCCNc5nc(C)ccc5C(=O)Nc5nc(C)c(C)s5)CC4)cn3)nc2n(C2CCCC2)c1=O [CPD-1, 2-((3-(2-(4-(6-((6-Acetyl-8-cyclopentyl-5-methyl-7-oxo-7,8-dihydropyrido[2,3-d]pyrimidin-2-yl)amino)pyridin-3-yl)piperazin-1-yl)acetamido)propyl)amino)-N-(4,5-dimethylthiazol-2-yl)-6-methylnicotinamide] |
| 50 to 80 | > 80 | COc1ccc(NC(=O)c2ccc(C)nc2NCCCCCCCNC(=O)CN2CCN(c3ccc(Nc4ncc5c(C)c(C(C)=O)c(=O)n(C6CCCC6)c5n4)nc3)CC2)nn1 [CPD-2, 2-((7-(2-(4-(6-((6-acetyl-8-cyclopentyl-5-methyl-7-oxo-7,8-dihydropyrido[2,3-d]pyrimidin-2-yl)amino)pyridin-3-yl)piperazin-1-yl)acetamido)heptyl)amino)-N-(6-methoxypyridazin-3-yl)-6-methylnicotinamide] |
| 50 to 80 | 50 to 80 | CC(=O)c1c(C)c2cnc(Nc3ccc(N4CCN(CC(=O)NCCCCCNc5nc(C)ccc5C(=O)Nc5nc(C)c(C)s5)CC4)cn3)nc2n(C2CCCC2)c1=O [CPD-3, 2-((5-(2-(4-(6-((6-acetyl-8-cyclopentyl-5-methyl-7-oxo-7,8-dihydropyrido[2,3-d]pyrimidin-2-yl)amino)pyridin-3-yl)piperazin-1-yl)acetamido)pentyl)amino)-N-(4,5-dimethylthiazol-2-yl)-6-methylnicotinamide] |
| 50 to 80 | – | CNc1ccc(C(=O)Nc2ccc(C)c(C3CC3)n2)c(NCCCCCCCNC(=O)CN2CCN(c3ccc(Nc4ncc5c(C)c(C(C)=O)c(=O)n(C6CCCC6)c5n4)nc3)CC2)n1 [CPD-6, 2-((7-(2-(4-(6-((6-acetyl-8-cyclopentyl-5-methyl-7-oxo-7,8-dihydropyrido[2,3-d]pyrimidin-2-yl)amino)pyridin-3-yl)piperazin-1-yl)acetamido)heptyl)amino)-N-(6-cyclopropyl-5-methylpyridin-2-yl)-6-(methylamino)nicotinamide] |
| 50 to 80 | – | CNc1ccc(C(=O)Nc2ccc(C)c(C3CC3)n2)c(NCCCCCNC(=O)CN2CCN(c3ccc(Nc4ncc5c(C)c(C(C)=O)c(=O)n(C6CCCC6)c5n4)nc3)CC2)n1 [CPD-7, 2-((5-(2-(4-(6-((6-acetyl-8-cyclopentyl-5-methyl-7-oxo-7,8-dihydropyrido[2,3-d]pyrimidin-2-yl)amino)pyridin-3-yl)piperazin-1-yl)acetamido)pentyl)amino)-N-(6-cyclopropyl-5-methylpyridin-2-yl)-6-(methylamino)nicotinamide] |
| 50 to 80 | > 80 | CC(=O)c1c(C)c2cnc(Nc3ccc(N4CCN(CC(=O)NCCCCCCCNc5nc(C)ccc5C(=O)Nc5ccc(C)c(C6CC6)n5)CC4)cn3)nc2n(C2CCCC2)c1=O [CPD-9, 2-((7-(2-(4-(6-((6-acetyl-8-cyclopentyl-5-methyl-7-oxo-7,8-dihydropyrido[2,3-d]pyrimidin-2-yl)amino)pyridin-3-yl)piperazin-1-yl)acetamido)heptyl)amino)-N-(6-cyclopropyl-5-methylpyridin-2-yl)-6-methylnicotinamide] |
| < 30 | < 30 | CNc1ccc(C(=O)Nc2ccc(C(C)C)nn2)c(NCCCCCNC(=O)CN2CCN(c3ccc(Nc4ncc5c(C)c(C(C)=O)c(=O)n(C6CCCC6)c5n4)nc3)CC2)n1 [CPD-15, 2-((5-(2-(4-(6-((6-Acetyl-8-cyclopentyl-5-methyl-7-oxo-7,8-dihydropyrido[2,3-d]pyrimidin-2-yl)amino)pyridin-3-yl)piperazin-1-yl)acetamido)pentyl)amino)-N-(6-isopropylpyridazin-3-yl)-6-(methylamino)nicotinamide] |
| < 30 | 30 to 50 | CNc1ccc(C(=O)Nc2ccc(N3CCCC3)nn2)c(NCCCCCNC(=O)CN2CCN(c3ccc(Nc4ncc5c(C)c(C(C)=O)c(=O)n(C6CCCC6)c5n4)nc3)CC2)n1 [CPD-17, 2-((5-(2-(4-(6-((6-Acetyl-8-cyclopentyl-5-methyl-7-oxo-7,8-dihydropyrido[2,3-d]pyrimidin-2-yl)amino)pyridin-3-yl)piperazin-1-yl)acetamido)pentyl)amino)-6-(methylamino)-N-(6-(pyrrolidin-1-yl)pyridazin-3-yl)nicotinamide] |
| < 30 | – | CNc1ccc(C(=O)Nc2ccc(C(F)(F)F)nn2)c(NCCCCCNC(=O)CN2CCN(c3ccc(Nc4ncc5c(C)c(C(C)=O)c(=O)n(C6CCCC6)c5n4)nc3)CC2)n1 [CPD-19, 2-((5-(2-(4-(6-((6-Acetyl-8-cyclopentyl-5-methyl-7-oxo-7,8-dihydropyrido[2,3-d]pyrimidin-2-yl)amino)pyridin-3-yl)piperazin-1-yl)acetamido)pentyl)amino)-6-(methylamino)-N-(6-(trifluoromethyl)pyridazin-3-yl)nicotinamide] |
| < 30 | – | CNc1ccc(C(=O)Nc2ccc(Cl)cn2)c(NCCCCCNC(=O)CN2CCN(c3ccc(Nc4ncc5c(C)c(C(C)=O)c(=O)n(C6CCCC6)c5n4)nc3)CC2)n1 [CPD-20, 2-((5-(2-(4-(6-((6-acetyl-8-cyclopentyl-5-methyl-7-oxo-7,8-dihydropyrido[2,3-d]pyrimidin-2-yl)amino)pyridin-3-yl)piperazin-1-yl)acetamido)pentyl)amino)-N-(5-chloropyridin-2-yl)-6-(methylamino)nicotinamide] |
| < 30 | < 30 | CNc1ccc(C(=O)Nc2ccc(N(C)C)nn2)c(N(C)CCCCCNC(=O)CN2CCN(c3ccc(Nc4ncc5c(C)c(C(C)=O)c(=O)n(C6CCCC6)c5n4)nc3)CC2)n1 [CPD-23, 2-((5-(2-(4-(6-((6-Acetyl-8-cyclopentyl-5-methyl-7-oxo-7,8-dihydropyrido[2,3-d]pyrimidin-2-yl)amino)pyridin-3-yl)piperazin-1-yl)acetamido)pentyl)(methyl)amino)-N-(6-(dimethylamino)pyridazin-3-yl)-6-(methylamino)nicotinamide] |
| < 30 | 50 to 80 | CNc1ccc(C(=O)Nc2ccc(N(C)C)nn2)c(Nc2cnn(CCNC(=O)CN3CCN(c4ccc(Nc5ncc6c(C)c(C(C)=O)c(=O)n(C7CCCC7)c6n5)nc4)CC3)n2)n1 [CPD-25, 2-((2-(2-(2-(4-(6-((6-Acetyl-8-cyclopentyl-5-methyl-7-oxo-7,8-dihydropyrido[2,3-d]pyrimidin-2-yl)amino)pyridin-3-yl)piperazin-1-yl)acetamido)ethyl)-2H-1,2,3-triazol-4-yl)amino)-N-(6-(dimethylamino)pyridazin-3-yl)-6-(methylamino)nicotinamide] |
| < 30 | 50 to 80 | CNc1ccc(C(=O)Nc2ccc(C3CC3)nn2)c(NCCCCCNC(=O)CN2CCN(c3ccc(Nc4ncc5c(C)c(C(C)=O)c(=O)n(C6CCCC6)c5n4)nc3)CC2)n1 [CPD-31, 2-((5-(2-(4-(6-((6-Acetyl-8-cyclopentyl-5-methyl-7-oxo-7,8-dihydropyrido[2,3-d]pyrimidin-2-yl)amino)pyridin-3-yl)piperazin-1-yl)acetamido)pentyl)amino)-N-(6-cyclopropylpyridazin-3-yl)-6-(methylamino)nicotinamide] |
| < 30 | < 30 | CNc1ccc(C(=O)Nc2ccc3c(cnn3C)n2)c(NCCCCCNC(=O)CN2CCN(c3ccc(Nc4ncc5c(C)c(C(C)=O)c(=O)n(C6CCCC6)c5n4)nc3)CC2)n1 [CPD-32] |
| 30 to 50 | 50 to 80 | CNc1ccc(C(=O)Nc2ccc(N(C)C)nn2)c(NCCCCC(=O)NCCN2CCN(c3ccc(Nc4ncc5c(C)c(C(C)=O)c(=O)n(C6CCCC6)c5n4)nc3)CC2)n1 [CPD-36, 2-((5-((2-(4-(6-((6-Acetyl-8-cyclopentyl-5-methyl-7-oxo-7,8-dihydropyrido[2,3-d]pyrimidin-2-yl)amino)pyridin-3-yl)piperazin-1-yl)ethyl)amino)-5-oxopentyl)amino)-N-(6-(dimethylamino)pyridazin-3-yl)-6-(methylamino)nicotinamide] |
| 50 to 80 | 50 to 80 | CNc1ccc(C(=O)Nc2ccc3c(n2)CCC3)c(NCCCCCNC(=O)CN2CCN(c3ccc(Nc4ncc5c(C)c(C(C)=O)c(=O)n(C6CCCC6)c5n4)nc3)CC2)n1 [CPD-40, 2-((5-(2-(4-(6-((6-Acetyl-8-cyclopentyl-5-methyl-7-oxo-7,8-dihydropyrido[2,3-d]pyrimidin-2-yl)amino)pyridin-3-yl)piperazin-1-yl)acetamido)pentyl)amino)-N-(6,7-dihydro-5H-cyclopenta[b]pyridin-2-yl)-6-(methylamino)nicotinamide] |
| 30 to 50 | 50 to 80 | CNc1ccc(C(=O)Nc2ccc(N(C)C)nn2)c(NCCC2CC(NC(=O)CN3CCN(c4ccc(Nc5ncc6c(C)c(C(C)=O)c(=O)n(C7CCCC7)c6n5)nc4)CC3)C2)n1 (stereo not drawn) [CPD-41, 2-((2-(3-(2-(4-(6-((6-Acetyl-8-cyclopentyl-5-methyl-7-oxo-7,8-dihydropyrido[2,3-d]pyrimidin-2-yl)amino)pyridin-3-yl)piperazin-1-yl)acetamido)cyclobutyl)ethyl)amino)-N-(6-(dimethylamino)pyridazin-3-yl)-6-(methylamino)nicotinamide] |

— US20260297081A1, “COMPOUNDS AND METHODS OF TREATING CANCERS” (Cullgen Inc., priority 2023, published 2026)
